Key:
[1] = test system: spindle assembly checkpoint; assay: SAC-Formation - Nocodazole-Induced Assay; type: cell-based; settings: Homo sapiens; HeLa cells, nocodazole 0.1 μg/ml, 24 h, phosphorylated histone H3 on serine 10
Summary of the method: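 HeLa cells were given nocodazole at 0.1 μg/ml final together with compounds (0.005–20 μM, 0.5% DMSO) for 24 h at 37° C. Mitotic cells were counted by phospho-histone H3 Ser10 immunostaining, with cell number from HOECHST 33342, by high-content imaging. The loss of mitotic cells was fitted with a four-parameter Hill equation.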

[2] = test system: spindle assembly checkpoint; assay: SAC-Formation - Paclitaxel-Induced Assay; type: cell-based; settings: Homo sapiens; HeLa cells, paclitaxel 0.05 μM, 24 h, phosphorylated histone H3 on serine 10
Summary of the method: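 HeLa cells were plated overnight, then given paclitaxel (0.05 μM final) plus compound (0.005-20 μM, 0.5% DMSO) for 24 h at 37° C. Fixed cells were stained for phospho-histone H3 Ser10 and with Hoechst, then imaged to give mitotic index. A fall in mitotic cells marks SAC breakthrough, and values were fit with a four-parameter Hill equation.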

**Q.** With `Cc1nsc(Nc2cnccn2)c1C(=O)Nc1ccc(F)c(F)c1` [Example 65, N-(3,4-Difluorophenyl)-3-methyl-5-(pyrazin-2-ylamino)-1,2-thiazole-4-carboxamide] as the compound, how does the IC50 [1] read?
**A.** The IC50 was 210 nM.

**Q.** And the IC50 [2]?
**A.** Its IC50 is 690 nM.

**Q.** What does the source list for `Cc1nsc(Nc2ccc(C(F)(F)F)nn2)c1C(=O)Nc1ccc(F)c(F)c1` [Example 83, N-(3,4-Difluorophenyl)-3-methyl-5-{[6-(trifluoromethyl)pyridazin-3-yl]amino}-1,2-thiazole-4-carboxamide]?
**A.** IC50 [1]: 7 nM; IC50 [2]: 9.3 nM

**Q.** For `CCNc1cncc(Nc2snc(C)c2C(=O)Nc2ccc(F)c(F)c2)n1` [Example 78, N-(3,4-Difluorophenyl)-5-{[6-(ethylamino)pyrazin-2-yl]amino}-3-methyl-1,2-thiazole-4-carboxamide], which IC50 [1] is on record?
**A.** The IC50 was 390 nM.

**Q.** What about the IC50 [2] of the same compound?
**A.** The IC50 was 910 nM.

**Q.** What does the source list for `CNC(=O)c1cncc(Nc2snc(C)c2C(=O)Nc2ccc(F)c(F)c2)n1` [Example 70, 6-({4-[(3,4-Difluorophenyl)carbamoyl]-3-methyl-1,2-thiazol-5-yl}amino)-N-methylpyrazine-2-carboxamide]?
**A.** IC50 [1]: 99 nM; IC50 [2]: 940 nM

**Q.** How did the IC50 [1] turn out when `Cc1nsc(Nc2cncc(-c3ncco3)n2)c1C(=O)Nc1ccc(Cl)c(F)c1` [Example 63, N-(4-Chloro-3-fluorophenyl)-3-methyl-5-{[6-(1,3-oxazol-2-yl)pyrazin-2-yl]amino}-1,2-thiazole-4-carboxamide] was run?
**A.** Its IC50 is 180 nM.

**Q.** What about the IC50 [2] of the same compound?
**A.** The IC50 was 360 nM.

**Q.** Which results are given for `COc1ccc(NC(=O)c2c(C)nsc2Nc2cnc3ccccc3n2)cn1` [Example 94, N-(6-Methoxypyridin-3-yl)-3-methyl-5-(quinoxalin-2-ylamino)-1,2-thiazole-4-carboxamide]?
**A.** IC50 [1]: 81 nM; IC50 [2]: 5600 nM

**Q.** `CCc1cncc(Nc2snc(C)c2C(=O)Nc2ccc(F)c(F)c2)n1` [Example 76, N-(3,4-Difluorophenyl)-5-[(6-ethylpyrazin-2-yl)amino]-3-methyl-1,2-thiazole-4-carboxamide] was tested. Which IC50 [1] did it give?
**A.** The IC50 was 52 nM.

**Q.** And the IC50 [2]?
**A.** Its IC50 is 13 nM.

**Q.** Which IC50 [1] does the source give for `CNC(=O)c1cnc(Nc2snc(C)c2C(=O)Nc2ccc(F)c(F)c2)cn1` [Example 75, 5-({4-[(3,4-Difluorophenyl)carbamoyl]-3-methyl-1,2-thiazol-5-yl}amino)-N-methylpyrazine-2-carboxamide] here?
**A.** Its IC50 is 81 nM.

**Q.** And the IC50 [2]?
**A.** Its IC50 is 58 nM.

**Q.** With `CCc1ccccc1NC(=O)c1c(C)nsc1Nc1cnc2cc(Cl)ccc2n1` [Example 86, 5-[(6-Chloroquinoxalin-2-yl)amino]-N-(2-ethylphenyl)-3-methyl-1,2-thiazole-4-carboxamide] as the compound, how does the IC50 [1] read?
**A.** The IC50 was 530 nM.

**Q.** What about the IC50 [2] of the same compound?
**A.** The IC50 was 490 nM.

**Q.** How did the IC50 [1] turn out when `Cc1nsc(Nc2cnc3cc(C(F)(F)F)ccc3n2)c1C(=O)Nc1ccc(Cl)c(Cl)c1` [Example 61, N-(3,4-Dichlorophenyl)-3-methyl-5-{[6-(trifluoromethyl)quinoxalin-2-yl]amino}-1,2-thiazole-4-carboxamide] was run?
**A.** The IC50 was 310 nM.

**Q.** What about the IC50 [2] of the same compound?
**A.** Its IC50 is 340 nM.

**Q.** With `CCOC(=O)c1cnc(Nc2snc(C)c2C(=O)Nc2ccccc2CC)s1` [Example 92, Ethyl 2-({4-[(2-ethylphenyl)-carbamoyl]-3-methyl-1,2-thiazol-5-yl}amino)-1,3-thiazole-5-carboxylate] as the compound, how does the IC50 [1] read?
**A.** Its IC50 is 1200 nM.

**Q.** And the IC50 [2]?
**A.** Its IC50 is 5600 nM.

**Q.** Which IC50 [1] does the source give for `CCc1ccccc1NC(=O)c1c(C)nsc1Nc1cc(C#N)ccn1` [Example 4, 5-[(4-Cyanopyridin-2-yl)amino]-N-(2-ethylphenyl)-3-methyl-1,2-thiazole-4-carboxamide] here?
**A.** Its IC50 is 730 nM.

**Q.** What about the IC50 [2] of the same compound?
**A.** Its IC50 is 1700 nM.

**Q.** For `COc1ccc(NC(=O)c2c(C)nsc2Nc2cncc(C(F)(F)F)n2)cn1` [Example 84, N-(6-methoxypyridin-3-yl)-3-methyl-5-{[6-(trifluoromethyl)pyrazin-2-yl]amino}-1,2-thiazole-4-carboxamide], which IC50 [1] is on record?
**A.** Its IC50 is 58 nM.

**Q.** What about the IC50 [2] of the same compound?
**A.** Its IC50 is 65 nM.

**Q.** Which IC50 [1] does the source give for `CCOC(=O)c1sc(Nc2snc(C)c2C(=O)Nc2ccc(Cl)c(F)c2)nc1C` [Example 95, Ethyl 2-({4-[(4-chloro-3-fluoro-phenyl)carbamoyl]-3-methyl-1,2-thiazol-5-yl}amino)-4-methyl-1,3-thiazole-5-carboxylate] here?
**A.** The IC50 was 260 nM.

**Q.** And the IC50 [2]?
**A.** Its IC50 is 510 nM.

**Q.** `CCNC(=O)c1cncc(Nc2snc(C)c2C(=O)Nc2ccc(F)c(F)c2)n1` [Example 73, 6-({4-[(3,4-Difluorophenyl)carbamoyl]-3-methyl-1,2-thiazol-5-yl}amino)-N-ethylpyrazine-2-carboxamide] was tested. Which IC50 [1] did it give?
**A.** The IC50 was 230 nM.

**Q.** What about the IC50 [2] of the same compound?
**A.** The IC50 was 63 nM.

**Q.** Which IC50 [1] does the source give for `Cc1nsc(Nc2nc3c(C(F)(F)F)ccnc3s2)c1C(=O)Nc1ccc(F)c(F)c1` [Example 58, N-(3,4-Difluorophenyl)-3-methyl-5-{[7-(trifluoromethyl)[1,3]thiazolo[5,4-b]pyridin-2-yl]amino}-1,2-thiazole-4-carboxamide] here?
**A.** Its IC50 is 280 nM.

**Q.** What about the IC50 [2] of the same compound?
**A.** The IC50 was 290 nM.

**Q.** What does the source list for `Cc1nsc(Nc2cnc(Cl)cn2)c1C(=O)Nc1ccc(F)c(F)c1` [Example 74, 5-[(5-Chloropyrazin-2-yl)amino]-N-(3,4-difluorophenyl)-3-methyl-1,2-thiazole-4-carboxamide]?
**A.** IC50 [1]: 29 nM; IC50 [2]: 31 nM

**Q.** How did the IC50 [1] turn out when `Cc1nsc(Nc2ccc(C#N)cn2)c1C(=O)Nc1ccc(Cl)c(Cl)c1` [Example 62, 5-[(5-Cyanopyridin-2-yl)amino]-N-(3,4-dichlorophenyl)-3-methyl-1,2-thiazole-4-carboxamide] was run?
**A.** The IC50 was 8.2 nM.

**Q.** What about the IC50 [2] of the same compound?
**A.** Its IC50 is 33 nM.

**Q.** Which IC50 [1] does the source give for `Cc1nsc(Nc2cnc(C(F)(F)F)cn2)c1C(=O)Nc1ccc(F)c(F)c1` [Example 81, N-(3,4-Difluorophenyl)-3-methyl-5-{[5-(trifluoromethyl)pyrazin-2-yl]amino}-1,2-thiazole-4-carboxamide] here?
**A.** The IC50 was 9.7 nM.

**Q.** What about the IC50 [2] of the same compound?
**A.** The IC50 was 16 nM.

**Q.** `Cc1nsc(Nc2cncc(-n3cccn3)n2)c1C(=O)Nc1ccc(Cl)c(F)c1` [Example 67, N-(4-Chloro-3-fluorophenyl)-3-methyl-5-{[6-(1H-pyrazol-1-yl)pyrazin-2-yl]amino}-1,2-thiazole-4-carboxamide] was tested. Which IC50 [1] did it give?
**A.** The IC50 was 12 nM.

**Q.** What about the IC50 [2] of the same compound?
**A.** Its IC50 is 22 nM.

**Q.** With `CCc1ccccc1NC(=O)c1c(C)nsc1Nc1ncccc1C(F)(F)F` [Example 3, N-(2-Ethylphenyl)-3-methyl-5-{[3-(trifluoromethyl)pyridin-2-yl]amino}-1,2-thiazole-4-carboxamide] as the compound, how does the IC50 [1] read?
**A.** The IC50 was 3000 nM.

**Q.** And the IC50 [2]?
**A.** Its IC50 is 5100 nM.

**Q.** `CCc1ccccc1NC(=O)c1c(C)nsc1Nc1nc(C(=O)OC)co1` [Example 91, Methyl 2-({4-[(2-ethylphenyl)carbamoyl]-3-methyl-1,2-thiazol-5-yl}amino)-1,3-oxazole-4-carboxylate] was tested. Which IC50 [1] did it give?
**A.** The IC50 was 4200 nM.

**Q.** What about the IC50 [2] of the same compound?
**A.** Its IC50 is 1400 nM.

**Q.** How did the IC50 [1] turn out when `Cc1nsc(Nc2cnc3cc(C(F)(F)F)ccc3n2)c1C(=O)Nc1ccc(F)c(F)c1` [Example 60, N-(3,4-Difluorophenyl)-3-methyl-5-{[6-(trifluoromethyl)quinoxalin-2-yl]amino}-1,2-thiazole-4-carboxamide] was run?
**A.** Its IC50 is 40 nM.

**Q.** And the IC50 [2]?
**A.** Its IC50 is 42 nM.

**Q.** How did the IC50 [1] turn out when `CCc1ccccc1NC(=O)c1c(C)nsc1Nc1ccncn1` [Example 2, N-(2-Ethylphenyl)-3-methyl-5-(pyrimidin-4-ylamino)-1,2-thiazole-4-carboxamide] was run?
**A.** The IC50 was 4200 nM.

**Q.** And the IC50 [2]?
**A.** Its IC50 is 11000 nM.

**Q.** Which results are given for `CCc1cnc(Nc2snc(C)c2C(=O)Nc2ccc(F)c(F)c2)cn1` [Example 79, N-(3,4-Difluorophenyl)-5-[(5-ethylpyrazin-2-yl)amino]-3-methyl-1,2-thiazole-4-carboxamide]?
**A.** IC50 [1]: 140 nM; IC50 [2]: 150 nM

**Q.** For `COc1cncc(Nc2snc(C)c2C(=O)Nc2ccc(F)c(F)c2)n1` [Example 72, N-(3,4-Difluorophenyl)-5-[(6-methoxypyrazin-2-yl)amino]-3-methyl-1,2-thiazole-4-carboxamide], which IC50 [1] is on record?
**A.** Its IC50 is 350 nM.

**Q.** And the IC50 [2]?
**A.** The IC50 was 20000 nM.

**Q.** Which IC50 [1] does the source give for `COC(=O)c1cnc(Nc2snc(C)c2C(=O)Nc2ccc(F)c(F)c2)cn1` [Example 59, Methyl 5-({4-[(3,4-difluorophenyl)carbamoyl]-3-methyl-1,2-thiazol-5-yl}amino)-pyrazine-2-carboxylate] here?
**A.** The IC50 was 260 nM.

**Q.** What about the IC50 [2] of the same compound?
**A.** Its IC50 is 260 nM.

**Q.** With `COC(=O)c1cncc(Nc2snc(C)c2C(=O)Nc2ccc(F)c(F)c2)n1` [Example 66, Methyl 6-({4-[(3,4-difluorophenyl)carbamoyl]-3-methyl-1,2-thiazol-5-yl}amino)-pyrazine-2-carboxylate] as the compound, how does the IC50 [1] read?
**A.** The IC50 was 37 nM.

**Q.** And the IC50 [2]?
**A.** Its IC50 is 90 nM.

**Q.** What does the source list for `COc1ccc(NC(=O)c2c(C)nsc2Nc2nc3ccc(C)cc3s2)cn1` [Example 90, N-(6-Methoxypyridin-3-yl)-3-methyl-5-[(6-methyl-1,3-benzothiazol-2-yl)amino]-1,2-thiazole-4-carboxamide]?
**A.** IC50 [1]: 4200 nM; IC50 [2]: 2300 nM

**Q.** Which IC50 [1] does the source give for `COc1ccc2nc(Nc3snc(C)c3C(=O)Nc3ccc(OC)nc3)sc2c1` [Example 87, 5-[(6-Methoxy-1,3-benzothiazol-2-yl)amino]-N-(6-methoxypyridin-3-yl)-3-methyl-1,2-thiazole-4-carboxamide] here?
**A.** The IC50 was 590 nM.

**Q.** And the IC50 [2]?
**A.** The IC50 was 350 nM.

**Q.** Which results are given for `Cc1nsc(Nc2cncc(-n3cccn3)n2)c1C(=O)Nc1ccc(F)c(F)c1` [Example 64, N-(3,4-Difluorophenyl)-3-methyl-5-{[6-(1H-pyrazol-1-yl)pyrazin-2-yl]amino}-1,2-thiazole-4-carboxamide]?
**A.** IC50 [1]: 97 nM; IC50 [2]: 110 nM

**Q.** `COc1ccc(NC(=O)c2c(C)nsc2Nc2nc3cccnc3s2)cn1` [Example 89, N-(6-Methoxypyridin-3-yl)-3-methyl-5-([1,3]thiazolo[5,4-b]pyridin-2-ylamino)-1,2-thiazole-4-carboxamide] was tested. Which IC50 [1] did it give?
**A.** The IC50 was 1400 nM.

**Q.** What about the IC50 [2] of the same compound?
**A.** The IC50 was 2300 nM.

**Q.** `Cc1nsc(Nc2cnc3cc(C(F)(F)F)ccc3n2)c1C(=O)Nc1ccc(Cl)c(F)c1` [Example 68, N-(4-Chloro-3-fluorophenyl)-3-methyl-5-{[6-(trifluoromethyl)quinoxalin-2-yl]amino}-1,2-thiazole-4-carboxamide] was tested. Which IC50 [1] did it give?
**A.** Its IC50 is 49 nM.

**Q.** And the IC50 [2]?
**A.** Its IC50 is 30 nM.
